From patent US20230372364A1, “METHOD OF TREATING GABA MEDIATED DISORDERS” (Eliem Therapeutics (UK) Ltd, priority 2020, published 2023)
Several values for one entry are separate records, joined by “and”; a condition that tells them apart may be missing. Equal entries are not always repeated. Entries after “also recorded” stand apart in the source; their conditions may differ. Marks after values point to notes of the source that are not given here.

What was measured:
kappa opioid receptor = kappa opioid receptor (Homo sapiens, UniProt P41145); experiment: Activity at the kappa opioid receptor; details: previously shown
Chain of kappa opioid receptor (P41145 whole entry): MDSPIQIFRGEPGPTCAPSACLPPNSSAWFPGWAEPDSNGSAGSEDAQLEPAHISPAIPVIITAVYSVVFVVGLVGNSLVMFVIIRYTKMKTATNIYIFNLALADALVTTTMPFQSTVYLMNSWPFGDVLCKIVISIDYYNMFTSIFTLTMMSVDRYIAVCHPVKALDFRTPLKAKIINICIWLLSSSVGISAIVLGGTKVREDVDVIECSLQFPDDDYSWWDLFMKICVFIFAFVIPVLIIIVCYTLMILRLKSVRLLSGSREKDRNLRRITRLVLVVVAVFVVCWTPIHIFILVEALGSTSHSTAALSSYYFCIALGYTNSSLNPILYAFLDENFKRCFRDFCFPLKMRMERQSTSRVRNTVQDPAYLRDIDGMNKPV
Excerpt: (§1) The compound of Formula (I) is believed to have binding affinity at the GABA-gated Cl-channel, the kappa opioid receptor, the 5-HT2A receptor, and the androgen receptor. The compound of Formula (I) has previously shown activity at all 18 GABAA receptor channels and the kappa opioid receptor. The compound of Formula (I) had previously shown no activity at the 5-HT2A receptor. Activity at the androgen receptor is has not yet been well studied.

[1] = Pharmacokinetic parameters in preclinical rodent studies; assay type: in vivo; parameters: Oral BA / ½ life: unit not given here
Experimental: The pharmacokinetic parameters of CV-10155 in preclinical studies on rodent models of seizure, anxiety, depression and EEG biomarker were analyzed.

[2] = 60 mg once daily for seven days, pharmacokinetics in humans (MAD); details: human
dogs = experiment: Repeat-dose toxicity up to four weeks, dogs; assay type: in vivo, dog; details: 28-day repeat dose
Experimental: The no-observed-adverse-effect-level doses were 7.5/mg/kg/day and 6 mg/kg/day in rats and dogs, respectively.
Justification for Dose—Based on the nonclinical toxicology data, there is not an unreasonable risk of adverse effects. Using the FDA guidance “Estimating the Maximum Safe Starting Dose in Initial Clinical Trials for Therapeutics in Adult Healthy Volunteers” (July, 2005), the calculated human equivalent dose would be 1/2 mg/kg/day or 3/24 mg/kg/day, respectively, based on the 28-day rat no-observed-adverse-effect-level dose of 7.5 mg/kg/day or the 28-day dog no-observed-adverse-effect-level dose of 6 mg/kg/day, respectively. For both species the no-observed-adverse-effect-level dose was the highest dose tested. For a 60 kg participant, this would result in a maximum safe starting dose of (human equivalent dose/10) of 7.2 mg/day or 19/6 mg/day. The starting doses in this Phase 1 study are 5 mg, equivalent to […] for a 60 kg participant. […] These anticipated Cmax and AUC values are ˜80- and 50-fold lower, respectively, than that observed at the no-observed-adverse-effect-level dose in dogs.

rats = experiment: Sleep states by electroencephalogram (EEG) in rats; assay type: in vivo, rat
Experimental: The effect of CV-10155 on various sleep states was analyzed in rats. Rats were given various doses of CV-10155, and sleep states were analyzed by electroencephalogram (EEG).

rodent models = experiment: Tolerability in rodent models; assay type: in vivo; details: at efficacious doses
Excerpt: The compound of Formula (I) is also believed to show antiepileptic activity in maximal electroshock and pentylenetetrazol seizure models, antidepressant properties in the forced swim test, and anxiolytic properties in the elevated plus maze test.

5-HT2A receptor = 5-HT2A receptor (Homo sapiens, UniProt P28223); experiment: Activity at the 5-HT2A receptor; details: previously shown
Chain of 5-HT2A receptor (P28223 whole entry, looked up): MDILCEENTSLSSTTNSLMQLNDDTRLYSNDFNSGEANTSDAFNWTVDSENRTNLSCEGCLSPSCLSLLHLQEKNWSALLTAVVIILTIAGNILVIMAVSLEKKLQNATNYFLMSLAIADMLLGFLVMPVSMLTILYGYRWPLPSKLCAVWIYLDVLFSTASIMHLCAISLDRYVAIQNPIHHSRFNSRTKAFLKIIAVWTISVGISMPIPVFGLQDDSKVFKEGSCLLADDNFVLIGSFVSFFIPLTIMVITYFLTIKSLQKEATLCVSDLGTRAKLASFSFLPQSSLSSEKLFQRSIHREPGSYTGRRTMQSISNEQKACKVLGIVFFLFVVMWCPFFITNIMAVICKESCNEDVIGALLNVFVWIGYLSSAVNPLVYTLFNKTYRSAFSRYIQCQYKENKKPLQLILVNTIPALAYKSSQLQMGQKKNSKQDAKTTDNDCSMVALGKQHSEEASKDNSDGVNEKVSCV
Excerpt: as §1

human subjects = experiment: 60 mg once daily for seven days, adverse events in humans (MAD); assay type: in vivo; details: for AE Sleepiness (Nervous system disorders): listed three times in the table; for AE Headache (Nervous system disorders): listed twice in the table
Experimental: The effects of CV-10155 in relation to administration at different times of the day and states of feeding were analyzed in humans. Subjects were given 60 mg CV-10155 orally once per day for seven consecutive days, and plasma concentrations were measured at various time points. Doses were administered either in the morning to fasted subjects or in the evening to fed subjects.
Adverse events observed following administration of a single dose of CV-10155 in the evening in a fed state are summarized on Table 6.
A comparison of adverse events observed following administration to fasted subjects in the morning and to fed subjects in the evening is provided in Table 7.
The tolerability of the neurosteroids CV-10155, Sage-217, and Praxis-114 in human subjects were compared. The results from subjects that received 45 mg Praxis-114 in the evening, 60 mg Praxis-114 in the evening, 80 mg Praxis-114 in the evening, or 60 mg CV-10155 in the evening are provided in Table 8, and the results form subjects that received 30 mg Sage-217 or 20 mg Sage-217 are provided in Table 9.

[3] = test system: rodent models of seizure, anxiety, depression and EEG biomarker; experiment: Preclinical models of depression, anxiety, seizure and EEG (overall effective dose); assay type: in vivo
[4] = target: α4β3δ Extra synaptic receptors (GABAA) (Homo sapiens, UniProt P28472+P48169); experiment: GABAA receptor potency and efficacy (EC50, Emax), α4β3δ; assay type: cell-based
Chain of α4β3δ Extra synaptic receptors (GABAA) (P48169 36-554): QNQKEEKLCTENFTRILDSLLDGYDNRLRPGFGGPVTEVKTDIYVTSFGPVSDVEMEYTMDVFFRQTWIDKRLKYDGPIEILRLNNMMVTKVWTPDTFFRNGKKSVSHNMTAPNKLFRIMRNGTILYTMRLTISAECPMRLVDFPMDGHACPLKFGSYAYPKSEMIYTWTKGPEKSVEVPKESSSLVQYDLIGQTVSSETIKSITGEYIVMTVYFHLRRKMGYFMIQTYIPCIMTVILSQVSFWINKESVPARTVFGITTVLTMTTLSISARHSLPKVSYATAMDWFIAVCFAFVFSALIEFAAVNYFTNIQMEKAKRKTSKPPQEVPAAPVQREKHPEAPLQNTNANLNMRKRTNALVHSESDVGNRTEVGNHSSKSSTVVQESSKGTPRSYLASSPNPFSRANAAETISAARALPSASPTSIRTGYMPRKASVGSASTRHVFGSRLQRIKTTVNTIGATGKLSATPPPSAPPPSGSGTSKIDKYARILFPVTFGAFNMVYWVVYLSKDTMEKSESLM
Chain of α4β3δ Extra synaptic receptors (GABAA) (P28472 26-473): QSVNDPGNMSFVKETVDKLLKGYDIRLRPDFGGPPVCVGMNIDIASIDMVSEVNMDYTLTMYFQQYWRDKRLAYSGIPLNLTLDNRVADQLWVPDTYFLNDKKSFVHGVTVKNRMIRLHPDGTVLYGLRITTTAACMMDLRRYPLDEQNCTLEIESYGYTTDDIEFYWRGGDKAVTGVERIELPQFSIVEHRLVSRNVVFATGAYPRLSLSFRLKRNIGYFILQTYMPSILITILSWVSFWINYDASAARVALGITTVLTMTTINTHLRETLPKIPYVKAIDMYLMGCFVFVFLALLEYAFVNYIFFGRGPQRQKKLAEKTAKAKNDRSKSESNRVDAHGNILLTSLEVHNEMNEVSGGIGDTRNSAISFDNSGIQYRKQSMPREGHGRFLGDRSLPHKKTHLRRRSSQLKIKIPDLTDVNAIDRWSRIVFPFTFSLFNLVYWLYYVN
Chain of α4β3δ Extra synaptic receptors (GABAA) (O14764 25-452 partner): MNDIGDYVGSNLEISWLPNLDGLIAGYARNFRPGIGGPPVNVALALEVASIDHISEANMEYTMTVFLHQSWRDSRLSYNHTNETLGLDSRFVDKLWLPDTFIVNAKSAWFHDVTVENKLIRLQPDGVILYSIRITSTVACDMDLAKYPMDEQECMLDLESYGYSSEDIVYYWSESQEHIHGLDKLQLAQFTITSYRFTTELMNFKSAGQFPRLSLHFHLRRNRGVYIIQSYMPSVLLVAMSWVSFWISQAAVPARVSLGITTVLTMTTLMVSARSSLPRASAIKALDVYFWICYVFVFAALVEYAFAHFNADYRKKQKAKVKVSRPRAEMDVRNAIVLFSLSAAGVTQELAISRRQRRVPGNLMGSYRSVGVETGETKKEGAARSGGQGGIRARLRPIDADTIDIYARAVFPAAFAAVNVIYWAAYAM

[5] = 1 mg/kg (minimal effective dose), male and female subjects
[6] = 3 mg/kg, male and female subjects
[7] = 10 mg/kg, male and female subjects
[8] = 60 mg, evening, fed state, N = 9
[9] = 60 mg, morning, fasted state, N = 9
[10] = HV, 60 mg evening dosing, n = 12
[11] = human, 60 mg, evening, fed state, one line per subject and event

Compound: C[C@@]1(O)CC[C@@]2(C)[C@@H](CC[C@@H]3[C@@H]2CC[C@]2(C)[C@@H](C(=O)Cn4cc(C#N)cn4)CC[C@@H]32)C1 [CV-10155, 1-[2-[(3R,5S,8R,9S,10S,13S,14S,17S)-3-hydroxy-3,10,13-trimethyl-1,2,4,5,6,7,8,9,11,12,14,15,16,17-tetradecahydrocyclopenta[a]phenanthren-17-yl]-2-oxoethyl]pyrazole-4-carbonitrile]
- activity at the kappa opioid receptor (kappa opioid receptor): activity
- AUC0-inf [1, 5]: 508-1301
- Cmax [1, 5]: 84.4-128
- Oral BA [1, 5]: 58.6-92.4
- Tmax [1, 5]: 1.5-2^
- ½ life [1, 5]: 3.66-6.82
- Oral BA ([1]; 2 mg/kg, only male subjects): 47.2
- Tmax ([1]; 2 mg/kg, only male subjects, in h): 1.7
- Cmax ([1]; 2 mg/kg, only male subjects, in ng/mL): 224
- AUC0-inf ([1]; 2 mg/kg, only male subjects, in ng·h/mL): 1319
- AUC0-inf [1, 6]: 1378-3899
- Cmax [1, 6]: 270-440
- Oral BA [1, 6]: 53-92.3
- ½ life [1, 6]: 2.84-4.96
- Tmax ([1]; 3 mg/kg, male and female subjects, in h): 1.25-2.50
- Oral BA ([1]; 5 mg/kg, only male subjects): 58.1
- ½ life ([1]; 5 mg/kg, only male subjects): 4.19
- Tmax ([1]; 5 mg/kg, only male subjects, in h): 0.83
- Cmax ([1]; 5 mg/kg, only male subjects, in ng/mL): 499
- AUC0-inf ([1]; 5 mg/kg, only male subjects, in ng·h/mL): 2610
- AUC0-inf [1, 7]: 6848-14667
- Oral BA [1, 7]: 79.7-100
- ½ life [1, 7]: 3.23-4.80
- Tmax ([1]; 10 mg/kg, male and female subjects, in h): 1.25-2.25
- Cmax ([1]; 10 mg/kg, male and female subjects, in ng/mL): 1165
- ratio of Cmax/trough on day 7 ([2]; 60 mg daily in the evening in a fed state): 3.47
- ratio of Cmax/trough on day 7 ([2]; 60 mg daily in the morning in a fasted state): 6.09
- difference in absorption, morning fasted vs evening fed ([2]; 60 mg oral once per day for seven days): no significant difference
- Ratio (Cmax/Cmin) ([2]; 60 mg, day 7 MAD, morning dosing): 6.07
- AUC0-inf ([2]; plasma, oral, 60 mg): 2900 ng·h/mL
- concentration at 7 day ([2]; plasma, oral, 60 mg): 41.5 ng/mL
- no-observed-adverse-effect-level dose (dogs): 6 mg/kg/day
- dose producing an increase in non-REM sleep (rats; doses 1, 3, 6, 10 mg/kg): ≥ 3 mg/kg
- target engagement (rats; within well-tolerated and efficacious dose ranges): dose-dependent target engagement
- tolerability in rodent models (rodent models): well tolerated
- activity at the 5-HT2A receptor (5-HT2A receptor): no activity
- AE Back pain (Musculoskeletal and connective tissue disorders) (human subjects; [8]): 1 #
- AE Bloating (Gastrointestinal disorders) (human subjects; [8]): 1 #
- AE Dizziness (Nervous system disorders) (human subjects; [8]): 1 #
- AE Sleepiness (Nervous system disorders) (human subjects; [8]): 1 #
- AE Headache (Nervous system disorders) (human subjects; [8]): 2 #
- AE Dizziness (Nervous system disorders) (human subjects; [9]): 1 #
- AE Feeling sleepy (Nervous system disorders) (human subjects; [9]): 1 #
- AE Feeling tired (General disorders and administration site conditions) (human subjects; [9]): 2 #
- AE Tiredness (General disorders and administration site conditions) (human subjects; [9]): 3 #
- AE Sleepiness (Nervous system disorders) (human subjects; [9]): 9 #
- AE Headache (Nervous system disorders) (human subjects; [9]): 2 #
- Dizziness, AEs % of subjects (human subjects; [10]): 16.7%
- Headache, AEs % of subjects (human subjects; [10]): 8.3%
- Somnolence, AEs % of subjects (human subjects; [10]): 8.3%
- AE (per subject) (human subjects; [11]): Dizziness; also recorded: Headache; also recorded: Somnolence; also recorded: Back pain; also recorded: Abdominal
- AE duration (human subjects; [11]): 20.50 h and 13.00 h and 14.50 h and 10.62 h and 39.25 h and 13.25 h and 06.50 h
- AE onset from dose (human subjects; [11]): pre-dose
- AE severity (human subjects; [11]): Mild (6×) and Moderate
- adverse effects that interfere with sleeping (human subjects; human, oral administration in the evening to fed subjects): does not produce adverse effects that interfere with sleeping
- dose from which robust efficacy was observed ([3]; in most models): ≥ 3 mg/kg
- minimal effective dose (MED) ([3]; preclinical models of depression, anxiety, seizure): 1 mg/kg
- fold higher efficiency at extra synaptic vs. synaptic channels [4]: 3 fold
- preferential modulation of α4β3δ subtype compared to α1β2γ2 subtype ([4]; isomerically pure compositions): preferentially modulate
